# Data taken from patent publication US20130157954A1, “METHODS FOR TREATMENT OR PROPHYLAXIS OF KIDNEY OR LIVER DYSFUNCTION” (NPS PHARMACEUTICALS, INC., priority 2010, published 2013).
# Assay: Example 1: liver biomarkers (total bilirubin, ALT, AST, ALP) in short bowel syndrome patients, every four weeks for 24 weeks; also sorted by >5% change from baseline
# Format: in vivo, Human
# Parameters: AST (SGOT) Change from Baseline Median / ALT (SGPT) Median / TOTAL BILIRUBIN Median / TOTAL BILIRUBIN Change from Baseline Median / ALT (SGPT) Change from Baseline Median / AST (SGOT) Median: unit not given here
# Details: 0.05 mg/kg/day
# Experimental: Human patients with short bowel syndrome were divided into three groups: a control group (16 total individuals) to receive placebo, an experimental group (35 total individuals) to receive teduglutide at 0.05 mg/kg/day throughout the study, and an experimental group (32 total individuals) to receive teduglutide at 0.1 mg/kg/day throughout the study. Patients were treated by subcutaneous injection of placebo or the appropriate dose of teduglutide. As individuals with short bowel syndrome are likely to experience associated liver and kidney disease, known biomarkers of liver and kidney function were monitored every four weeks, for 24 weeks. The liver biomarkers tested included total bilirubin, ALT and AST and ALP. The kidney biomarkers tested included urea nitrogen, creatinine and GFR. Before administration of placebo or teduglutide, diagnostic biomarker levels were tested to establish a baseline for each individual.
# To visualize the effect of GLP-2 on the levels of the diagnostic biomarkers, the average change from baseline was calculated for the placebo and teduglutide treated groups for each visit after a baseline was established. The average change from baseline of each group is depicted in FIGS. 1-7. The numerical figures for each diagnostic biomarker at each time point are depicted in Table 1.
# The efficacy of teduglutide in treating liver dysfunction was further tested by sorting the data into two groups: individuals with abnormal baseline values of liver diagnostic biomarkers; and individuals with normal baseline values of liver diagnostic biomarkers. The mean diagnostic biomarker change from baseline for these two groups is shown for ALT (FIGS. 5 and 6) and AST (FIGS. 7 and 8). […] These changes were significant when compared to baseline levels for the group, and when compared to placebo (see FIGS. 5 and 7).
# The raw data for this sorting is reproduced in Table 2 below.
smiles,measurement,setting,value
CC[C@H](C)[C@H](NC(=O)[C@H](Cc1ccccc1)NC(=O)[C@H](CC(=O)O)NC(=O)[C@H](CCCNC(=N)N)NC(=O)[C@H](C)NC(=O)[C@H](C)NC(=O)[C@H](CC(C)C)NC(=O)[C@H](CC(N)=O)NC(=O)[C@H](CC(=O)O)NC(=O)[C@H](CC(C)C)NC(=O)[C@@H](NC(=O)[C@@H](NC(=O)[C@H](CC(N)=O)NC(=O)[C@H](CCSC)NC(=O)[C@H](CCC(=O)O)NC(=O)[C@H](CC(=O)O)NC(=O)[C@H](CO)NC(=O)[C@H](Cc1ccccc1)NC(=O)[C@H](CO)NC(=O)CNC(=O)[C@H](CC(=O)O)NC(=O)CNC(=O)[C@@H](N)Cc1c[nH]cn1)[C@@H](C)O)[C@@H](C)CC)C(=O)N[C@@H](CC(N)=O)C(=O)N[C@@H](Cc1c[nH]c2ccccc12)C(=O)N[C@@H](CC(C)C)C(=O)N[C@H](C(=O)N[C@@H](CCC(N)=O)C(=O)N[C@H](C(=O)N[C@@H](CCCCN)C(=O)N[C@H](C(=O)N[C@H](C(=O)N[C@@H](CC(=O)O)C(=O)O)[C@@H](C)O)[C@@H](C)CC)[C@@H](C)O)[C@@H](C)CC [teduglutide],ALKALINE PHOSPHATASE Change from Baseline Median,DW4,−16.0
same,ALT (SGPT) Change from Baseline Median,DW4,−5.0
same,ALT (SGPT) Median,DW4,27.0
same,AST (SGOT) Change from Baseline Median,DW4,−4.0
same,AST (SGOT) Median,DW4,27.0
same,TOTAL BILIRUBIN Change from Baseline Median,DW4,0.0
same,TOTAL BILIRUBIN Median,DW4,7.0
same,ALKALINE PHOSPHATASE Change from Baseline Median,DW8,−20.0
same,ALT (SGPT) Change from Baseline Median,DW8,−4.0
same,AST (SGOT) Change from Baseline Median,DW8,−3.0
same,AST (SGOT) Median,DW8,28.0
same,TOTAL BILIRUBIN Change from Baseline Median,DW8,−1.0
same,TOTAL BILIRUBIN Median,DW8,8.0
same,ALKALINE PHOSPHATASE Change from Baseline Median,DW12,−24.0
same,ALT (SGPT) Change from Baseline Median,DW12,−10.0
same,ALT (SGPT) Median,DW12,26.0
same,AST (SGOT) Change from Baseline Median,DW12,−8.0
same,TOTAL BILIRUBIN Change from Baseline Median,DW12,−1.0
same,TOTAL BILIRUBIN Median,DW12,7.0
same,ALT (SGPT) Change from Baseline Median,DW16,−2.5
same,ALT (SGPT) Median,DW16,28.0
same,AST (SGOT) Change from Baseline Median,DW16,−1.5
same,AST (SGOT) Median,DW16,25.0
same,TOTAL BILIRUBIN Change from Baseline Median,DW16,−1.0
same,TOTAL BILIRUBIN Median,DW16,7.0
same,ALKALINE PHOSPHATASE Change from Baseline Median,DW20,−25.0
same,ALT (SGPT) Change from Baseline Median,DW20,−5.0
same,ALT (SGPT) Median,DW20,26.0
same,AST (SGOT) Change from Baseline Median,DW20,−4.0
same,AST (SGOT) Median,DW20,25.0
same,TOTAL BILIRUBIN Change from Baseline Median,DW20,0.0
same,TOTAL BILIRUBIN Median,DW20,9.0
same,ALKALINE PHOSPHATASE Change from Baseline Median,DW 24,−29.0
same,ALT (SGPT) Change from Baseline Median,DW 24,−5.0
same,ALT (SGPT) Median,DW 24,20.0
same,AST (SGOT) Change from Baseline Median,DW 24,−4.5
same,AST (SGOT) Median,DW 24,25.0
same,TOTAL BILIRUBIN Change from Baseline Median,DW 24,0.0
same,TOTAL BILIRUBIN Median,DW 24,8.0
same,"ALKALINE PHOSPHATASE change from baseline <−5%, number of patients",week 4,21
same,"ALKALINE PHOSPHATASE change from baseline <−5%, percent of patients",week 4,(60.0%)
same,"ALKALINE PHOSPHATASE change from baseline >5%, number of patients",week 4,3
same,"ALKALINE PHOSPHATASE change from baseline >5%, percent of patients",week 4,(8.6%)
same,"ALKALINE PHOSPHATASE change from baseline −5% <= and <=5%, number of patients",week 4,6
same,"ALKALINE PHOSPHATASE change from baseline −5% <= and <=5%, percent of patients",week 4,(17.1%)
same,"ALT (SGPT) change from baseline <−5%, number of patients",week 4,22
same,"ALT (SGPT) change from baseline <−5%, percent of patients",week 4,(62.9%)
same,"ALT (SGPT) change from baseline >5%, number of patients",week 4,8
same,"ALT (SGPT) change from baseline >5%, percent of patients",week 4,(22.9%)
same,"ALT (SGPT) change from baseline −5% <= and <=5%, number of patients",week 4,0
same,"ALT (SGPT) change from baseline −5% <= and <=5%, percent of patients",week 4,(0.0%)
same,"AST (SGOT) change from baseline <−5%, number of patients",week 4,21
same,"AST (SGOT) change from baseline <−5%, percent of patients",week 4,(60.0%)
same,"AST (SGOT) change from baseline >5%, number of patients",week 4,5
same,"AST (SGOT) change from baseline >5%, percent of patients",week 4,(14.3%)
same,"AST (SGOT) change from baseline −5% <= and <=5%, number of patients",week 4,2
same,"AST (SGOT) change from baseline −5% <= and <=5%, percent of patients",week 4,(5.7%)
same,"TOTAL BILIRUBIN change from baseline <−5%, number of patients",week 4,12
same,"TOTAL BILIRUBIN change from baseline <−5%, percent of patients",week 4,(34.3%)
same,"TOTAL BILIRUBIN change from baseline >5%, number of patients",week 4,8
same,"TOTAL BILIRUBIN change from baseline >5%, percent of patients",week 4,(22.9%)
same,"TOTAL BILIRUBIN change from baseline −5% <= and <=5%, number of patients",week 4,6
same,"TOTAL BILIRUBIN change from baseline −5% <= and <=5%, percent of patients",week 4,(17.1%)
same,"ALKALINE PHOSPHATASE change from baseline <−5%, number of patients",week 8,21
same,"ALKALINE PHOSPHATASE change from baseline <−5%, percent of patients",week 8,(60.0%)
same,"ALKALINE PHOSPHATASE change from baseline >5%, number of patients",week 8,6
same,"ALKALINE PHOSPHATASE change from baseline >5%, percent of patients",week 8,(17.1%)
same,"ALKALINE PHOSPHATASE change from baseline −5% <= and <=5%, number of patients",week 8,2
same,"ALKALINE PHOSPHATASE change from baseline −5% <= and <=5%, percent of patients",week 8,(5.7%)
same,"ALT (SGPT) change from baseline <−5%, number of patients",week 8,16
same,"ALT (SGPT) change from baseline <−5%, percent of patients",week 8,(45.7%)
same,"ALT (SGPT) change from baseline >5%, number of patients",week 8,9
same,"ALT (SGPT) change from baseline >5%, percent of patients",week 8,(25.7%)
same,"ALT (SGPT) change from baseline −5% <= and <=5%, number of patients",week 8,4
same,"ALT (SGPT) change from baseline −5% <= and <=5%, percent of patients",week 8,(11.4%)
same,"AST (SGOT) change from baseline <−5%, number of patients",week 8,16
same,"AST (SGOT) change from baseline <−5%, percent of patients",week 8,(45.7%)
same,"AST (SGOT) change from baseline >5%, number of patients",week 8,9
same,"AST (SGOT) change from baseline >5%, percent of patients",week 8,(25.7%)
same,"AST (SGOT) change from baseline −5% <= and <=5%, number of patients",week 8,4
same,"AST (SGOT) change from baseline −5% <= and <=5%, percent of patients",week 8,(11.4%)
same,"TOTAL BILIRUBIN change from baseline <−5%, number of patients",week 8,13
same,"TOTAL BILIRUBIN change from baseline <−5%, percent of patients",week 8,(37.1%)
same,"TOTAL BILIRUBIN change from baseline >5%, number of patients",week 8,8
same,"TOTAL BILIRUBIN change from baseline >5%, percent of patients",week 8,(22.9%)
same,"TOTAL BILIRUBIN change from baseline −5% <= and <=5%, number of patients",week 8,4
same,"TOTAL BILIRUBIN change from baseline −5% <= and <=5%, percent of patients",week 8,(11.4%)
same,"ALKALINE PHOSPHATASE change from baseline <−5%, number of patients",week 12,23
same,"ALKALINE PHOSPHATASE change from baseline <−5%, percent of patients",week 12,(65.7%)
same,"ALKALINE PHOSPHATASE change from baseline >5%, number of patients",week 12,2
same,"ALKALINE PHOSPHATASE change from baseline >5%, percent of patients",week 12,(5.7%)
same,"ALKALINE PHOSPHATASE change from baseline −5% <= and <=5%, number of patients",week 12,2
